We go through two compounds from patent US20250288583A1, “Treatment of Mucus Hypersecretion” (priority 2024, published 2025).

Entries after “also recorded” stand apart in the source; their conditions may differ.

One assay relates to nasal cavity. The assay is described as follows: Gravimetric measurement of nasal secretions in a subject with rhinitis after NasoNeb rinsing. In kind it is in vivo, human. The conditions noted are these: NasoNeb rinse 5 sec at t=0, 2, 5 hr, D-Ala-OiPr 2 mg/mL, GlyOiPr 3 mg/mL; for Weight of individual blowouts of nasal secretions (average ± s.e.m.): vehicle 0.40±0.03 g; for 10-hr nasal secretion (avg. ± s.e.m): vehicle 3.53±0.44 g. The procedure: A top-loading balance, sensitive to 1 mg, was used to measure phlegm secretions from the nose. A pre-weighed tissue paper was tared to zero, and after blowing into the tissue, the amount of exudate was recorded from the balance display. This measurement is an objective sign of nasal inflammation. Microbalances, sensitive to 1 mg, are now available online for less than $20. Conventional laboratory balances with the same capabilities are listed for $2000+ each but should now be obsolete. The convenience of an inexpensive method for quantifying phlegm output as an indicator of nasal pathology is part of the inventive steps.
FIG. 9. Inhibition of nasal secretions in a subject with rhinitis by topical administration of the preferred embodiments D-Ala-OiPr and GlyOiPr with a Nasoneb® apparatus. Rinsing of GlyOiPr and D-Ala-OiPr (dissolved 3 mg/ml and 2 mg/mL, respectively, in 1% ethanol and 2% polysorbate 80) was for 5 sec at t=0, 2, and 5 hr. Secretions were recorded for 10-15 hr per day. The 10-hr secretion (avg.±s.e.m) was vehicle 3.53±0.44 g, D-Ala-OiPr 1.70±0.27 g, GlyOiPr 1.32±0.32 g, with n=6, 5, 5 observations per group, respectively.
FIG. 10. Weights of individual blowouts of nasal secretions in a subject with rhinitis after topical administration of D-Ala-OiPr and GlyOiPr with a Nasoneb® apparatus. The vehicle or test substances were rinsed into the nasal cavity (0 mg/mL, 2 mg/mL and 3 mg/mL, respectively, for 5 sec at t=0, 2, and 5 hr). The data points are for individual “blowouts” from the nose, measured with tissue paper and balance. The data are plotted on a semi-log scale, so zero values are not shown. The average #s.e.m. for blowouts were: vehicle 0.40±0.03 g, D-Ala-OiPr 0.19±0.02 g, GlyOiPr 0.19±0.02 g, with n=70, 44, 42 observations per group, respectively.
In the first experimental step, the phlegm secretion must be accurately measured. That is, it is necessary to show what is “blown out” of the nose in patients with rhinitis (FIG. 8). The treatment goal is to reduce the accumulation of dense, slimy, viscous phlegm, which will otherwise ooze out of the nasal cavity. In practice, it was discovered that if treatment can reduce individual blowouts to <0.25 g/event, the subject with rhinitis becomes essentially “disease-free” and is able to have normal daily activities and sleep well at night. […] The top-loading microbalance method for quantifying phlegm weight is an excellent monitor of rhinitis intensity.
FIG. 9. […] The data points represent secretions recorded for 10-15 hr per day. These points were fitted by linear regression (GraphPad Prism), and the 10-hr secretion measured (avg.±s.e.m) as vehicle 3.53±0:44 g, D-Ala-OiPr 1.700:27 g; GlyOiPr 1.32±0.32 g, with n=6, 5, 5 observations per group, respectively. […]

The target in another assay is T1, TRPV1 (Homo sapiens, UniProt Q8NER1).
T1 construct: expressed in transfected cells
T1 sequence (Q8NER1 whole entry, species assumed): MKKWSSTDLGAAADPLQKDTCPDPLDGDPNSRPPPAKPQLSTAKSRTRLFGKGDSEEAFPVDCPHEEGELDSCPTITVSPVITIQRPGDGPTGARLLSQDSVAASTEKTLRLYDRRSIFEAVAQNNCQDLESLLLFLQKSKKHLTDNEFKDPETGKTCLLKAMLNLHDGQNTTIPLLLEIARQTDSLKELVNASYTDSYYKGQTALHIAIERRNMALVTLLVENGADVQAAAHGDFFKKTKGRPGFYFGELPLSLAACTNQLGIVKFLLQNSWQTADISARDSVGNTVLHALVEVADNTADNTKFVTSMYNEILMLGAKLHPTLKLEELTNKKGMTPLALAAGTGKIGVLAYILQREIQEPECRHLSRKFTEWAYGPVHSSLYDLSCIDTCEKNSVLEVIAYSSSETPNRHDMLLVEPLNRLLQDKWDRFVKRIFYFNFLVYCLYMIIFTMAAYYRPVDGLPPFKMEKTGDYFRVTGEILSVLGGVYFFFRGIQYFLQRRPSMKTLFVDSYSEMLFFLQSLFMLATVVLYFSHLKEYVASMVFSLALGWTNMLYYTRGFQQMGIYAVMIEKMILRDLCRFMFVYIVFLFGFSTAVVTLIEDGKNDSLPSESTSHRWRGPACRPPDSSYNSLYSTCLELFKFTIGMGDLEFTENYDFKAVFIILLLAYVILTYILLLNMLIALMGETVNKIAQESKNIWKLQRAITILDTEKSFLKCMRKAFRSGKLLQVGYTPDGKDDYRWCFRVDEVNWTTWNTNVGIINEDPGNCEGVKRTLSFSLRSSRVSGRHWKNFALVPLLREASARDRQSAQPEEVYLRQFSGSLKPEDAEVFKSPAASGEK
The assay is described as follows: TRPV1 specificity assay in transfected cells. In kind it is cell-based. The following applies: FIG. 5; capsaicin positive control.

In another assay the test system is ocular margins. Put plainly: Cooling duration bioassay on eyelids/ocular margins. The following applies: for Duration of effects on the ocular margins, on average: test concentration 1 mg/mL. Format: in vivo, human. The text has this:
FIG. 1. Comparison of cooling duration of various p-menthanecarboxamide analogs on philtrum skin versus ocular margins. The philtrum skin is keratinized, but the ocular margins are not. The test substances numbered 1 to 11 are: D-Ala-OiPr, Gly-OiPr, D-Ala-OEt, D-Ala-OMe, D-Ala-GlynPr, GlynPr, D-Ala-OnBu, GlynBu, GlyOEt, L-Ala-OEt, and N-Me-D-Ala-OEt, respectively. Two outliers (1 and 2) were identified as preferred embodiments because they preferentially cool the ocular margins. The nasal cavity surfaces like the ocular margins are not keratinized.
Cooling agents have been assayed in various ways depending on intended use. For example, for the skin the test substance can be applied on philtrum skin, using descriptions of coolness on a scale of 0 to 3. For the ocular surface, the active ingredient can be applied to the closed eyelids using a wipe. In the oral cavity, drug applications are on the posterior dorsal surface of the tongue. For the oropharyngeal surface, the cooling agent may be applied as an orally disintegrating tablet. The ability of a cooling agent to antagonize a noxious stimuli may also be tested, using nociception from citric acid or chili pepper sauce. Responses are usually measured using a Visual Analog Scale with a numerical rating. For nasal responses, however, such procedures have not been standardized. Some endpoints to consider are open and comfortable breathing, the presence or absence of sniffles, and the secretion of phlegm.

Regarding `CC(C)OC(=O)[C@@H](C)NC(=O)[C@@H]1C[C@H](C)CC[C@H]1C(C)C` [D-Ala-OiPr, (R)-2-[((1R,2S,5R)-2-isopropyl-5-methyl-cyclohexanecarbonyl)amino]-propionic acid i-propyl ester], in the assay with nasal cavity, the “Weight of individual blowouts of nasal secretions (average ± s.e.m.)” value turned out to be 0.19 ± 0.02 g and the “10-hr nasal secretion (avg. ± s.e.m)” value is 1.70±0.27 g. Further, the “Response of cells transfected with TRPV1” value at TRPV1 was “inactive”. The “Eyelids/Ocular Surface” value with ocular margins (Table 6, cooling duration, non-keratinized) is 360 min. Moreover, the “Duration of effects on the ocular margins, on average” value in the assay on ocular margins is ~5 h.
For the compound `CC(C)OC(=O)CNC(=O)[C@@H]1C[C@H](C)CC[C@H]1C(C)C` [GlyOiPr, [((1R,2S,5R)-2-isopropyl-5-methyl-cyclohexanecarbonyl)-amino]-acetic acid isopropyl ester], in the assay with nasal cavity, the “Weight of individual blowouts of nasal secretions (average ± s.e.m.)” value came out at 0.19 ± 0.02 g and the “10-hr nasal secretion (avg. ± s.e.m)” value was determined as 1.32±0.32 g. On TRPV1, the “Response of cells transfected with TRPV1” value is “do not respond; also recorded: activates TRPM8 but not TRPV1 or TRPA1”. Further, in the assay with ocular margins (Table 7, Gly esters), the “Ocular Surface” value is 300 min. The “Duration of effects on the ocular margins, on average” value in the assay with ocular margins is ~5 h. Moreover, the “Duration on the ocular surface” value with ocular margins (test concentration increased from 1 mg/mL to 1.5 mg/mL) is reported as “about 6.5 hours”.
